Consider 16 compounds from patent US20100069378A1, “SUBSTITUTED INDANYL SULFONAMIDE COMPOUNDS, THEIR PREPARATION AND USE AS MEDICAMENTS” (LABORATORIOS DEL DR. ESTEVE, S.A., priority 2006, published 2010).

Structures are written as SMILES. Where a name gives a salt, the structure may show the parent alone.

The target of this assay is T1, 5HT6 human recombinant receptor (Homo sapiens, UniProt P50406).
T1 construct: purchased Receptor Biology; host or cells: HEK-293 cell membranes (recombinant expression)
As to the kind of experiment: Binding Test to 5-HT6 Receptors ([3H]-LSD displacement, HEK-293 membranes). Particulars: [3H]-LSD 2.7 nM, 60 min, 37° C.; for inhibition at 0.1 µM: compound at 10^−7 M; for inhibition at 0.01 µM: compound at 10^−8 M. Here is the method:
Binding Test to 5-HT6 Receptors
Membranes of HEK-293 cells expressing the 5HT6 human recombinant receptor were supplied by Receptor Biology. In these membranes the receptor concentration is 2.18 pmol/mg protein and the protein concentration is 9.17 mg/ml. The experimental protocol follows the method of B. L. Roth et al. [B. L. Roth, S. C. Craigo, M. S. Choudhary, A. Uluer, F. J. Monsma, Y. Shen, H. Y. Meltzer, D. R. Sibley: Binding of Typical and Atypical Antipsychotic Agents to 5-Hydroxytryptamine-6 and Hydroxytriptamine-7 Receptors. The Journal of Pharmacology and Experimental Therapeutics, 1994, 268, 1403] with slight modifications. The commercial membrane is diluted (dilution 1:40) with the binding buffer: 50 mM Tris-HCl, 10 mM MgCl2, 0.5 mM EDTA (pH 7.4). The radioligand used is [^3H]-LSD at a concentration of 2.7 nM with a final volume of 200 μl. Incubation is initiated by adding 100 μl of the membrane suspension (≈22.9 μg membrane protein), and continues for 60 minutes at a temperature of 37° C. Incubation ends by fast filtration in a Harvester Brandel Cell through glass fibre filters manufactured by Schleicher & Schuell GF 3362 pre-treated with a 0.5% polyethylenimine solution. The filters are washed three times with three millilitres of Tris-HCl 50 mM pH 7.4 buffer. The filters are transferred to phials and to each phial 5 ml of liquid scintillation cocktail Ecoscint H is added. The phials are allowed to reach equilibrium for several hours before being counted in a Wallac Winspectral 1414 scintillation counter. Non-specific binding is determined in the presence of 100 μM serotonin. The tests are performed in triplicate. The inhibition constants (Ki, nM) are calculated by non-linear regression analysis using the program EBDA/LIGAND [Munson and Rodbard, Analytical Biochemistry, 1980, 107, 220].

T1 sequence (P50406 whole entry): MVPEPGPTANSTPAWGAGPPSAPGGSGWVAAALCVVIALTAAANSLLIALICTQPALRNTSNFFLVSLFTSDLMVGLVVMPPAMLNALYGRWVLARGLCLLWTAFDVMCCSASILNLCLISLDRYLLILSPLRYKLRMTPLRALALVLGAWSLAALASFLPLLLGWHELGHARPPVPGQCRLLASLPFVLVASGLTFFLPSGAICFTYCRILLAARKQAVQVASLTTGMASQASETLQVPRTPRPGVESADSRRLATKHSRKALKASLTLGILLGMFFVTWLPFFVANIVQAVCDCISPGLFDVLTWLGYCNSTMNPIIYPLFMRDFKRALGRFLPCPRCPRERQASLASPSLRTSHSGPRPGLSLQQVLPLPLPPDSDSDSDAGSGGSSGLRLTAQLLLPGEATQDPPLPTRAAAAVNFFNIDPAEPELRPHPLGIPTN

What is called inhibition is the drop in the measured response relative to a control, in per cent. Regarding `CN1CCN(C2CCc3ccc(NS(=O)(=O)c4c(Cl)nc5sccn45)cc32)CC1` (racemic) [Compound 4, N-[3-(4-methylpiperazin-1-yl)-2,3-dihydro-1H-inden-5-yl]-6-chloroimidazo[2,1-b][1,3]thiazole-5-sulfonamide], the inhibition at 0.1 µM amounted to 83.4% and the inhibition at 0.01 µM turned out to be 63%.

As for `CN1CCN(C2CCc3ccc(NS(=O)(=O)c4ccc5ccccc5c4)cc32)CC1` (centres unmarked) [Compound 2, N-[3-(4-methylpiperazin-1-yl)-2,3-dihydro-1H-inden-5-yl]naphtalene-2-sulfonamide], the inhibition at 0.1 µM came to 89.1% and the inhibition at 0.01 µM stood at 71.6%.

Take `Cc1c(S(=O)(=O)Nc2ccc3c(c2)C(N2CCN(C)CC2)CC3)sc2ccc(Cl)cc12` (centres unmarked) [Compound 3, N-[3-(4-methylpiperazin-1-yl)-2,3-dihydro-1H-inden-5-yl]-5-chloro-3-methylbenzo[b]thiophene-2-sulfonamide]: the inhibition at 0.1 µM was determined as 87.9% and the inhibition at 0.01 µM came to 55.7%.

As for `O=S(=O)(Nc1ccc2c(c1)C(N1CCNCC1)CC2)c1c(Cl)nc2sccn12` (centres unmarked) [Compound 5, N-[3-(piperazin-1-yl)-2,3-dihydro-1H-inden-5-yl]-6-chloroimidazo[2,1-b][1,3]thiazole-5-sulfonamide], the inhibition at 0.1 µM amounted to 85.6% and the inhibition at 0.01 µM came out at 63.6%.

For `N=C(N)N/N=C1/CCc2ccc(NS(=O)(=O)c3ccc4ccccc4c3)cc21` [Compound 8, 2-{6-[(2-naphthylsulfonyl)amino]-2,3-dihydro-1H-inden-1-ylidene}hydrazinecarboximidamide hydrochloride], the inhibition at 0.1 µM was 82.2% and the inhibition at 0.01 µM is 56.1%.

For the compound `N=C(N)N/N=C1/CCc2ccc(NS(=O)(=O)c3c(Cl)nc4sccn34)cc21` [Compound 9, 2-(6-{[(6-chloroimidazo[2,1-b][1,3]thiazol-5-yl)sulfonyl]amino}-2,3-dihydro-1H-inden-1-ylidene)hydrazinecarboximidamide], the inhibition at 0.1 µM was found to be 89.6% and the inhibition at 0.01 µM worked out at 84.7%.

For `CC1Cc2ccc(NS(=O)(=O)c3c(Cl)nc4sccn34)cc2/C1=N\NC(=N)N` (centres unmarked) [Compound 11, 2-(6-{[(6-chloroimidazo[2,1-b][1,3]thiazol-5-yl)sulfonyl]amino}-2-methyl-2,3-dihydro-1H-inden-1-ylidene)hydrazinecarboximidamide], the inhibition at 0.1 µM was determined as 91.1% and the inhibition at 0.01 µM is 84.7%.

Consider `CN1CCN(C2CCc3cc(NS(=O)(=O)c4c(Cl)nc5sccn45)ccc32)CC1` (centres unmarked) [Compound 14, 6-chloro-N-[1-(4-methylpiperazin-1-yl)-2,3-dihydro-1H-inden-5-yl]imidazo[2,1b][1,3]thiazole-5-sulfonamide], for which the inhibition at 0.1 µM was 85.8% and the inhibition at 0.01 µM came out at 75.5%.

On to `CN1CCN(C2CC(C)(C)c3ccc(NS(=O)(=O)c4c(Cl)nc5sccn45)cc32)CC1` (centres unmarked) [Compound 15, 6-chloro-N-[1,1-dimethyl-3-(4-methylpiperazin-1-yl)-2,3-dihydro-1H-inden-5-yl]imidazo[2,1-b][1,3]thiazole-5-sulfonamide], for which the inhibition at 0.1 µM stood at 30.3% and the inhibition at 0.01 µM is -6.6%.

`CN1CCN(C2CCc3ccc(N(C)S(=O)(=O)c4c(Cl)nc5sccn45)cc32)CC1` (centres unmarked) [Compound 16, 6-chloro-N-methyl-N-[3-(4-methylpiperazin-1-yl)-2,3-dihydro-1H-inden-5-yl]imidazo[2,1-b][1,3]thiazole-5-sulfonamide]: the inhibition at 0.1 µM came to 72.7% and the inhibition at 0.01 µM was found to be 29%.

For the compound `CC1(C)CC(=NNC(=N)N)c2cc(NS(=O)(=O)c3c(Cl)nc4sccn34)ccc21` [Compound 20, 2-(6-{[(6-chloroimidazo[2,1-b][1,3]thiazol-5-yl)sulfonyl]amino}-3,3-dimethyl-2,3-dihydro-1H-inden-1-ylidene)hydrazinecarboximidamide hydrochloride], the inhibition at 0.1 µM came out at 87.7% and the inhibition at 0.01 µM worked out at 77.2%.

For `N=C(N)NN=C1CCc2cc(NS(=O)(=O)c3c(Cl)nc4sccn34)ccc21` [Compound 21, 2-(5-{[(6-chloroimidazo[2,1-b][1,3]thiazol-5-yl)sulfonyl]amino}-2,3-dihydro-1H-inden-1-ylidene)hydrazinecarboximidamide hydrochloride], the inhibition at 0.1 µM is 86.9% and the inhibition at 0.01 µM came out at 78.1%.

For `CN(c1ccc2c(c1)/C(=N\NC(=N)N)CC2)S(=O)(=O)c1c(Cl)nc2sccn12` [Compound 22, 2-(6-{[(6-chloroimidazo[2,1-b][1,3]thiazol-5-yl)sulfonyl](methyl)amino}-2,3-dihydro-1H-inden-1-ylidene)hydrazinecarboximidamide hydrochloride], the inhibition at 0.1 µM amounted to 89.2% and the inhibition at 0.01 µM worked out at 83.9%.

Take `CN1CCOc2cc(S(=O)(=O)Nc3ccc4c(c3)/C(=N\NC(=N)N)CC4)ccc21` [Compound 23, 2-(6-{[(4-methyl-3,4-dihydro-2H-1,4-benzoxazine-7-yl)sulfonyl]amino}-2,3-dihydro-1H-inden-1-ylidene)hydrazinecarboximidamide hydrochloride]: the inhibition at 0.1 µM is 87.3% and the inhibition at 0.01 µM is 69.3%.

As for `O=S(=O)(Nc1ccc2c(c1)C(=NNC1=NCCN1)CC2)c1c(Cl)nc2sccn12` [Compound 24, 6-chloro-N-[3-(4,5-dihydro-1H-imidazol-2-ylhydrazono)-2,3-dihydro-1H-inden-5-yl]imidazo[2,1-b][1,3]thiazole-5-sulfonamide hydrochloride], the inhibition at 0.1 µM was determined as 87.7% and the inhibition at 0.01 µM is 83.3%.

As for `CN1CCOc2cc(S(=O)(=O)Nc3ccc4c(c3)C(=NNC3=NCCN3)CC4)ccc21` [Compound 26, N-[3-(4,5-dihydro-1H-imidazol-2-ylhydrazono)-2,3-dihydro-1H-inden-5-yl]-4-methyl-3,4-dihydro-2H-1,4-benzoxazine-7-sulfonamide hydrochloride], the inhibition at 0.1 µM is 84.6% and the inhibition at 0.01 µM was determined as 51%.
